According to PMC8595653, “Activation of specific bitter taste receptors by olive oil phenolics and secoiridoids” (Scientific Reports, 2021):
Entries after “also recorded” stand apart in the source; their conditions may differ. One block for each molecule: values may come before it.

Legend:
[1] = biological target: T1, TAS2R14 (Homo sapiens, UniProt Q9NYV8); assay: Calcium mobilization functional assay, TAS2R14 co-expressed with Gα16-gust44 and GCaMP in HEK293E cells; assay type: cell-based; conditions: 0.3 mM, versus empty pcDNA vector
T1 construct: first 45 amino acids of rat somatostatin type 3 receptor (SSTR3) export tag (N); expressed in transfected cells; host or cells: HEK293E
T1 sequence (Q9NYV8 1-317): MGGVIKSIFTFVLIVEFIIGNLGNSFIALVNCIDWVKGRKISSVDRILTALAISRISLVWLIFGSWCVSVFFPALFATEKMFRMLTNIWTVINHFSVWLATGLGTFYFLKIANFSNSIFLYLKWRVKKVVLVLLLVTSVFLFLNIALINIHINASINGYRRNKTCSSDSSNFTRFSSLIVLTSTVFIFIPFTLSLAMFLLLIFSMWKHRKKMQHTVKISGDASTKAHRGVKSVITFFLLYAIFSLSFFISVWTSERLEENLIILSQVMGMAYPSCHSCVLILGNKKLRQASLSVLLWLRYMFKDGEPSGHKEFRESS
Method: (§1) All constructs were confirmed by DNA sequencing.
(§2) Data from single dose experiments were collected as duplicates. […] Data represent mean ± SD.
(§3) To characterize the bitterness of olive oil phenolic compounds, we performed calcium mobilization experiments. The 25 bitter taste receptors, G protein chimera (Gα16-gus44), and the GCaMP calcium sensor[68] were transiently expressed in HEK293E cells. Twelve olive oil phenolic compounds (Fig. 1) were tested for bitter taster receptor activation (Fig. 3). […] Ligstroside aglycon, and Oleuropein aglycon activated TAS2R1, TAS2R8 and TAS2R14 receptors. To validate the single dose scanning results, we performed concentration–response experiments for all the compounds toward receptors TAS2R1, TAS2R8, and TAS2R14 that produced the most significant responses (Fig. 4).

[2] = biological target: T2, TAS2R40 (Homo sapiens, UniProt P59535); assay: Calcium mobilization functional assay, TAS2R40; assay type: cell-based; conditions: 30 µM, versus empty pcDNA vector
T2 construct: first 45 amino acids of rat somatostatin type 3 receptor (SSTR3) export tag (N); expressed in transfected cells; host or cells: HEK293E
Text: as §1, §2

[3] = tested on: 25 human TAS2Rs; assay: Single dose scanning of phenolic compounds on the 25 bitter taste receptors (calcium mobilization, HEK293E); assay type: cell-based; conditions: single dose 300 µM, 25 TAS2Rs, N = 2
Method: as §1, §2, §3
Figure 3 Phenolic compound bitter taste activity tests on hTAS2Rs. Relative fluorescence signals caused by phenolic compound activation of the receptors and the empty vector as a negative control. The concentration of the compounds used was [300 µM], except for Ligstroside aglycon and Oleuropein aglycon [200 µM], oleuropein that was [3 mM]. The asterisks indicate significant differences tested by one-way ANOVA (***p < 0.0001) (N = 2). Data represent mean ± SD.

[4] = biological target: TAS2R38 (Homo sapiens, UniProt P59533); conditions: 1 mM, versus empty pcDNA vector
Method: 25 human TAS2R genes were subcloned into the pcDNA 3.1 vector, as previously descripted in the literature[44],[53]. The first 45 amino acids of the rat somatostatin type 3 receptor, which serves as a cell-surface-targeting signal, were added to the N-termini of the TAS2Rs to target them more efficiently to the cell surface. Herpes simplex virus (HSV) glycoprotein D epitopes were added to the carboxy termini of the receptors for immunocytochemistry. All constructs were confirmed by DNA sequencing.
HEK293E cells were cultured at 37 °C in DMEM (Thermo Fisher Scientific), supplemented with 10% fetal bovine serum (FBS) and 1% Penicillin Streptomycin. The cells were seeded onto 96-well plates (Clear Bottom Black Polystyrene Poly-D-Lysine Coated Microplates, Corning life sciences) at a density of 50,000 (in 100 μl DMEM) per well, and cultured at 37 °C for overnight. On the second day following seeding, the medium was changed to OPTI-MEM supplemented with 5% FBS (filtered) before co-transfection using Polyethylenimine (PEI) (1.6 μg/well) with plasmid DNAs encoding TAS2Rs (0.1 μg/well), Gα16-gust44 (0.06 μg/well) and the GCaMP calcium sensor (0.035 μg/well). After 24 h, the medium was changed to fresh OPTI-MEM supplemented with 5% FBS (filtered) and 0.1% Plasmocin (InvivoGen). […]

[5] = biological target: T3, TAS2R1 (Homo sapiens, UniProt Q9NYW7); assay: Calcium mobilization functional assay, TAS2R1 co-expressed with Gα16-gust44 and GCaMP in HEK293E cells; assay type: cell-based; conditions: 1 mM, versus empty pcDNA vector
T3 construct: first 45 amino acids of rat somatostatin type 3 receptor (SSTR3) export tag (N); expressed in transfected cells; host or cells: HEK293E
T3 sequence (Q9NYW7 1-299): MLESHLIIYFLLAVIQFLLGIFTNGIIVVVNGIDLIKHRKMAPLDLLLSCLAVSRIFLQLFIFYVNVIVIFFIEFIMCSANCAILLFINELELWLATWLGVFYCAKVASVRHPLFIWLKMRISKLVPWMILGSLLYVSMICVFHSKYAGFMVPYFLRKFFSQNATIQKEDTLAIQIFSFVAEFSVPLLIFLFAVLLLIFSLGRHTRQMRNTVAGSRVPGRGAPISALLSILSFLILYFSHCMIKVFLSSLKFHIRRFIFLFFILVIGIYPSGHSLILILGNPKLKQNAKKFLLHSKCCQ
Method: as §1, §2, §3

[6] = biological target: T4, TAS2R8 (Homo sapiens, UniProt Q9NYW2); assay: Calcium mobilization functional assay, TAS2R8 co-expressed with Gα16-gust44 and GCaMP in HEK293E cells; assay type: cell-based; conditions: for potency and efficacy on TAS2R8 in words: concentration-response experiments, maximal concentration 10 mM for oleuropein; for activation of TAS2R8 over background: single dose 300 µM
T4 construct: first 45 amino acids of rat somatostatin type 3 receptor (SSTR3) export tag (N); expressed in transfected cells; host or cells: HEK293E
T4 sequence (Q9NYW2 1-309): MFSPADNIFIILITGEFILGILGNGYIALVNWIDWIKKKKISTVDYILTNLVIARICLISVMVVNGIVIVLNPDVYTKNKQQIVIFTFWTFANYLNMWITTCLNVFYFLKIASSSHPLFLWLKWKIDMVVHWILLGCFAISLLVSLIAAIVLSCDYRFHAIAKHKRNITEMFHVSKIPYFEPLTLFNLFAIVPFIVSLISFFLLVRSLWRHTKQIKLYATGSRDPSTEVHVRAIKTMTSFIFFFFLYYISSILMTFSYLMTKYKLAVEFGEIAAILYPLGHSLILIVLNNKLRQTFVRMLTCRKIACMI
Method: as §1, §2, §3

[7] = biological target: T5, TAS2R41 (Homo sapiens, UniProt P59536); assay: Calcium mobilization functional assay, TAS2R41; assay type: cell-based; conditions: 1 mM, versus empty pcDNA vector
T5 construct: first 45 amino acids of rat somatostatin type 3 receptor (SSTR3) export tag (N); expressed in transfected cells; host or cells: HEK293E
Text: as §1, §2

T2 sequence (P59535 whole entry): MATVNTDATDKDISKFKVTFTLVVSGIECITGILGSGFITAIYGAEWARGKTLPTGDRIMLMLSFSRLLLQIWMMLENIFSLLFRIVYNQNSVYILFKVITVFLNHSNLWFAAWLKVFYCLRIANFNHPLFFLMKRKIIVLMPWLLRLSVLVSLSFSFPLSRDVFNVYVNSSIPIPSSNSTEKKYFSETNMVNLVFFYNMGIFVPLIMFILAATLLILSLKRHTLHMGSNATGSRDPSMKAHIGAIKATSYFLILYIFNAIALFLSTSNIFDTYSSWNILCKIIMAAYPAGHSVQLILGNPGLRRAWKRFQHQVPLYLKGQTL
TAS2R38, sequence (P59533 whole entry): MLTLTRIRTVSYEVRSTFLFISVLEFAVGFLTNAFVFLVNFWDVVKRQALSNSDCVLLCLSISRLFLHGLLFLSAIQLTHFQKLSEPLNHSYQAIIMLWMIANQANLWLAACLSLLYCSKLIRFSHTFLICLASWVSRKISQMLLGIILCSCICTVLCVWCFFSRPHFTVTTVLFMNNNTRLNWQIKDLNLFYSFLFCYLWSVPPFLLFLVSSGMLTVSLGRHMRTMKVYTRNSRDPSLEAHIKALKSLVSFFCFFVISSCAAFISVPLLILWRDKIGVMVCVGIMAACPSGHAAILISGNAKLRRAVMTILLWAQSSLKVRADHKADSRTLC
T5 sequence (P59536 whole entry): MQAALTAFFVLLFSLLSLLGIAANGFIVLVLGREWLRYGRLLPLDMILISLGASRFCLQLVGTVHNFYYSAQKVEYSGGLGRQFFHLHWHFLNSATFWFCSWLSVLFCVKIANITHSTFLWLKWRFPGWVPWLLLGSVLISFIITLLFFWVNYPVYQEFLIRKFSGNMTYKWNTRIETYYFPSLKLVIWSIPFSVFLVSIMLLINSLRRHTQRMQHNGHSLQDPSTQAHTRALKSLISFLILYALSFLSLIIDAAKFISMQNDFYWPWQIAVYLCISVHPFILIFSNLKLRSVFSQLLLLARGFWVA

SMILES: O=C(O)c1ccccc1Nc1cccc(C(F)(F)F)c1 [flufenamic acid, reference compound]
activation of TAS2R14 [1]: activated

SMILES: CC(C)=CCC1C(=O)C(C(=O)CC(C)C)=C(O)C(O)(CC=C(C)C)C1=O (stereo not drawn) [humulone]
activation of TAS2R40 [2]: activated

SMILES: C/C=C(/C=O)[C@@H](CC=O)CC(=O)OCCc1ccc(O)c(O)c1 [Oleacein, oleacein]
activation of any TAS2R [3]: did not activate any TAS2Rs; also recorded: did not show any activation of bitter receptors; also recorded: failed to activate any TAS2Rs

SMILES: COC(=O)C1=COC(C)C(C=O)C1CC(=O)O (stereo not drawn) [Elenolic acid, elenolic acid]
potency and efficacy on TAS2R8 in words [6]: activated weakly and less potently; also recorded: activated TAS2R8 with lower potency
activation of TAS2R8 over background [6]: activate
activation of TAS2R8 over background ([6]; listed as elenolic acid): activated significantly

SMILES: CC=C1C(OC2OC(CO)C(O)C(O)C2O)OC=C(C(=O)OC)C1CC(=O)O (stereo not drawn) [Oleoside-methylester, oleoside-11-methylester]
activation of any TAS2R ([3]; listed as oleoside-11-methyl ester): failed to activate any bitter receptor
activation of any TAS2R ([3]; listed as oleoside-methylester): did not activate any TAS2Rs; also recorded: failed to activate any TAS2Rs

Results, then the molecule that gave them:

activation of any TAS2R [3]: failed to activate any bitter receptor
SMILES: OCCc1ccc(O)c(O)c1 [Hydroxytyrosol, hydroxytyrosol]

activation of TAS2R38 [4]: activated
SMILES: CCCc1cc(=O)[nH]c(=S)[nH]1 [PROP, 6-n-propylthiouracil]

activation of TAS2R1 [5]: activated
activation of TAS2R8 ([6]; 1 mM, versus empty pcDNA vector): activated
activation of TAS2R41 [7]: activated
SMILES: O=C(N[C@H](CO)[C@H](O)c1ccc([N+](=O)[O-])cc1)C(Cl)Cl [chloramphenicol, reference compound]

potency and efficacy on TAS2R8 in words [6]: activated TAS2R8 with lower potency
potency and efficacy on TAS2R8 in words ([6]; listed as oleocanthalic acid): activated weakly and less potently
activation of TAS2R8 over background [6]: activate
activation of TAS2R8 over background ([6]; listed as oleocanthalic acid): activated significantly
SMILES: C/C=C(/C=O)[C@@H](CC(=O)O)CC(=O)OCCc1ccc(O)cc1 [Oleocanthalic acid, oleocanthalic acid]

times more potent than oleuropein ([6]; potency of bitter receptor activation relative to oleuropein (1)): ~50 times
SMILES: COC(=O)C1=COC(C)C(C=O)C1CC(=O)OCCc1ccc(O)c(O)c1 (single isomer, unassigned; isomer a) [Oleuropein aglycon closed-type (5a), oleuropein aglycon closed-type (isomer A)]
